Strand notation (5' to 3'): a small letter for the sugar, then the base; units joined by * are phosphorothioate-linked, units joined directly phosphodiester-linked; [ ] holds rarer units or linkages, { } end groups; capitals alone tell only the bases. e = 2'-O-(2-methoxyethyl) (MOE); [5mC] = 5-methylcytosine; d = 2'-deoxy (DNA)

For one data set, the system named is blood coagulation. As to the kind of experiment: PT and aPTT, combination with LOVENOX (Example 19). The class given is in vivo, BALB/c mice. The procedure:
PT and aPTT were measured using PPP from mice treated with ISIS 404071 in combination with LOVENOX. In the first cohort, ISIS 404071 was administered subcutaneously to BALB/c mice at a dosage of 25 mg/kg twice a week for 3 weeks. Plasma was collected from these mice 5 days after receiving the last dose of ISIS 404071. In the second cohort, LOVENOX was administered subcutaneously to BALB/c mice at a dosage of 20 mg/kg once daily for three days. Plasma was collected from these mice 4 hours after receiving the last dose of LOVENOX. In the third cohort, ISIS 404071 was administered subcutaneously to BALB/c mice at a dosage of 20 mg/kg twice a week for 3 weeks, and 2 days after receiving the last dose of ISIS 404071, LOVENOX was administered subcutaneously at a dosage of 20 mg/kg once daily. Plasma was collected from these mice 4 hours after the last dose of LOVENOX. In a fourth cohort, PBS was administered subcutaneously twice a week for three weeks, as a control. Plasma was collected from these mice 5 days after the last dose.
PT and aPTT values provided in Table 31 are reported as International Normalized Ratio (INR) values. […] Also shown in Table 31, treatment with LOVENOX and treatment with ISIS 404071 combined with LOVENOX increase aPTT.

The next data set concerns platelet factor-4 (PF-4). Briefly: Factor 7a protein antidote: PF-4 in FeCl3 induced VT model (Example 24). Format: in vivo, BALB/c mice. The settings on record: ISIS 404071 20 mg/kg s.c. twice a week for 3 weeks; human Factor 7a 5 μg/kg fifteen minutes before FeCl3 where given. On the procedure:
The effect of human Factor 7a (Factor VIIa) protein as an antidote for ISIS 404071 was tested in BALB/c mice. […] Thrombus formation was induced with FeCl3 in all of the mice except the first control group. Fifteen minutes before FeCl3 treatment, the first experimental group was treated with 5 μg/kg of human Factor 7a protein antidote (product no. 407act, American Diagnostica Inc.). Two days after their last dose, all mice were anesthetized with 150 mg/kg of ketamine mixed with 10 mg/kg of xylazine administered by intraperitoneal injection.
In mice undergoing FeCl3 treatment, thrombus formation was induced by applying a piece of filter paper (2×4 mm) pre-saturated with 10% FeCl3 solution directly on the vena cava. After 3 minutes of exposure, the filter paper was removed. Thirty minutes after the filter paper application, a fixed length of the vein containing the thrombus was dissected out for platelet analysis.
Real-time PCR quantification of platelet factor-4 (PF-4) was used to quantify platelets in the vena cava as a measure of thrombus formation. Results are presented as a percentage of PF-4 in antidote treated and untreated mice, as compared to the two PBS-treated control groups.

Data set [1] in a line: Tail bleeding assay, combination with PLAVIX (Example 27). Format: in vivo, BALB/c mice. The note with it: ISIS 404071 20 mg/kg, PLAVIX 0. The procedure: ISIS 404071 was administered subcutaneously at a dosage of 20 mg/kg twice a week for 3 weeks to 5 groups of eight BALB/c mice. After the last dose of ISIS 404071, mice were treated with 0 mg/kg, 6.25 mg/kg, 12.50 mg/kg, 25.00 mg/kg, or 50.00 mg/kg of PLAVIX. Two doses of PLAVIX were administered to the mice on day one and one dose of PLAVIX was administered on day two, two hours before bleeding.
Two hours after receiving their final treatment, mice were placed in a tail bleeding chamber. […] The blood was collected for the course of 40 minutes.

The subject of data set [2] is IL-1β, IL-6, IFN-γ, TNF-α, IL-8, MIP-1α, MCP-1, MIP-1β, RANTES. Briefly: Cytokine and chemokine assays in cynomolgus monkeys (Example 45). Format: in vivo. The note with it: escalating dose regimen. The procedure: Groups, each consisting of two male and three female monkeys, were injected subcutaneously with ISIS 416838, ISIS 416850, ISIS 416858, ISIS 416864, or ISIS 417002 in escalating doses. Antisense oligonucleotide was administered to the monkeys at 5 mg/kg three times per a week for week 1; 5 mg/kg twice per week for weeks 2 and 3; 10 mg/kg three times per week for week 4; 10 mg/kg twice per week for weeks 5 and 6; 25 mg/kg three times per week for week 7; and 25 mg/kg twice per week for weeks 8, 9, 10, 11, and 12. One control group, consisting of two male and three female monkeys, was injected subcutaneously with PBS according to the same dosing regimen. An additional experimental group, consisting of two male and three female monkeys, was injected subcutaneously with ISIS 416850 in a chronic, lower dose regimen. Antisense oligonucleotide was administered to the monkeys at 5 mg/kg three times per week for week 1; 5 mg/kg twice per week for week 2 and 3; 10 mg/kg three times per week for week 4; and 10 mg/kg twice per week for weeks 5 to 12. Body weights were measured weekly. Blood samples were collected 14 days and 5 days before the start of treatment and subsequently once per week for Factor 11 protein activity analysis in plasma, fibrinogen measurement, PT and aPTT measurements, bleeding times, and measurement of various hematologic factors. On day 85, the monkeys were euthanized by exsanguination while under deep anesthesia, and organs harvested for further analysis.
Blood samples obtained from the monkey groups treated with PBS, ISIS 416850 and ISIS 416858 administered in the escalating dose regimen were sent to Pierce Biotechnology (Woburn, Mass.) for measurement of chemokine and cytokine levels. Levels of IL-1β, IL-6, IFN-γ, and TNF-α were measured using the respective primate antibodies and levels of IL-8, MIP-1α, MCP-1, MIP-1β and RANTES were measured using the respective cross-reacting human antibodies. Measurements were taken 14 days before the start of treatment and on day 85, when the monkeys were euthanized.

Data set [3] in a line: Tolerability in Sprague-Dawley rats: liver function (Example 42). The note with it: 50 mg/kg s.c. twice per week for 6 weeks, plasma.
Data set [4] is described as follows: Tolerability in Sprague-Dawley rats: body weight and organ weight (Example 42). The settings on record: 50 mg/kg s.c. twice per week for 6 weeks; for Change in Kidney weight / Change in Liver weight / Change in Spleen weight: end of study; for Change in body weight: percent increase over the PBS control weight.
Where [5] appears, read: ISIS 404071 alone 25 mg/kg s.c. twice a week for 3 weeks, LOVENOX alone 20 mg/kg s.c. once daily for three days, combination 20 mg/kg + 20 mg/kg.
The mark [6] stands for this setting: day −14 (before start of treatment).

As for “ISIS 404071: antisense oligonucleotide targeted to murine Factor 11 mRNA, TGGTAATCCACTTTCAGAGG, target start site 869 (chemistry not given here)”, in the data set with blood coagulation (BALB/c mice, ISIS 404071 25 or 20 mg/kg, LOVENOX 20 mg/kg), the “PT” value is “not significantly affected”. Also, in the data set with blood coagulation (setting [5]), the “PT INR” value worked out at 0.95 INR and the “aPTT INR” value was 1.31 INR. In the data set on platelet factor-4 (PF-4), the “PF-4 in vena cava, percentage as compared to PBS controls (thrombus formation)” value is given as 18%. For the same substance, the “Blood (tail bleeding, collected for 40 minutes)” value in data set [1] is recorded as 0 g.
In data set [2] (day 85), “ISIS 416850: MOE gapmer, nucleobases 1275 to 1318 of SEQ ID NO: 1 (Table 8) (antisense TGCACAGTTTCTGGCAGGCC; MOE gapmer, wing and gap sizes not given here)” returned an IFN-γ level of 18 pg/mL, an IL-1β level of 13 pg/mL, an IL-6 level of 17 pg/mL and an IL-8 level of 172 pg/mL. In data set [2] (day 85), the MCP-1 level was 2330 pg/mL, the MIP-1α level worked out at 41 pg/mL, the MIP-1β level is 216 pg/mL and the RANTES level turned out to be 83981 pg/mL. In data set [2] (day 85), this substance came in with a TNF-α level of 27 pg/mL. In addition, in data set [2] (setting [6]), the IFN-γ level was found to be 126 pg/mL, the IL-1β level was 3 pg/mL, the IL-6 level is listed as 30 pg/mL and the IL-8 level is recorded as 1659 pg/mL. In data set [2] (setting [6]), the MCP-1 level is 1384 pg/mL, the MIP-1α level is recorded as 28 pg/mL, the MIP-1β level was 137 pg/mL and the RANTES level came out at 75335 pg/mL. In data set [2] (setting [6]), this substance had a TNF-α level of 14 pg/mL.
In data set [2] (day 85), “ISIS 416858: MOE gapmer, nucleobases 1275 to 1318 of SEQ ID NO: 1 (Table 8) (antisense ACGGCATTGGTGCACAGTTT; MOE gapmer, wing and gap sizes not given here)” displayed an IFN-γ level of 18 pg/mL, an IL-1β level of 5 pg/mL, an IL-6 level of 25 pg/mL and an IL-8 level of 303 pg/mL. In data set [2] (day 85), this substance yielded an MCP-1 level of 1752 pg/mL, an MIP-1α level of 41 pg/mL, an MIP-1β level of 221 pg/mL and an RANTES level of 125511 pg/mL. Besides, the TNF-α level in data set [2] (day 85) was found to be 45 pg/mL. In data set [2] (setting [6]), the IFN-γ level was 60 pg/mL, the IL-1β level came out at 5 pg/mL, the IL-6 level is given as 9 pg/mL and the IL-8 level stood at 1552 pg/mL. Also, in data set [2] (setting [6]), the MCP-1 level came out at 1252 pg/mL, the MIP-1α level was 36 pg/mL, the MIP-1β level is 122 pg/mL and the RANTES level is recorded as 112253 pg/mL. This substance also came in with a TNF-α level in data set [2] (setting [6]) of 9 pg/mL.
In data set [3], “ISIS 445522: 5-8-5 or 6-8-6 MOE microwalk gapmer (Table 44) (antisense eG*e[5mC]*eA*e[5mC]*eA*dG*dT*dT*dT*d[5mC]*dT*dG*dG*e[5mC]*eA*eG*eG*e[5mC])” came in with an ALT of 240 IU/L, an AST of 138 IU/L, an Albumin of 3.6 and a Bilirubin of 0.47 mg/dL. Further, in data set [4], the “Change in Kidney weight” value is given as “+19%”, the “Change in Liver weight” value was “+26%”, the “Change in Spleen weight” value was “+184%” and the “Change in body weight” value was −13%.
In the case of “ISIS 445531: 5-8-5 or 6-8-6 MOE microwalk gapmer (Table 44) (antisense eG*eG*e[5mC]*eA*eT*dT*dG*dG*dT*dG*d[5mC]*dA*d[5mC]*eA*eG*eT*eT*eT)”, in data set [3], the ALT is listed as 272 IU/L, the AST is listed as 137 IU/L, the Albumin is recorded as 3.7 and the Bilirubin worked out at 0.12 mg/dL. Also, in data set [4], the “Change in Kidney weight” value was “+4%”, the “Change in Liver weight” value is reported as “+17%”, the “Change in Spleen weight” value is “+89%” and the “Change in body weight” value was −10%.

Values taken from patent publication US20230263822A1, “MODULATION OF FACTOR 11 EXPRESSION” (Ionis Pharmaceuticals, Inc., priority 2008, published 2023).
